Data reported in paper PMC9469084, “Unravelling the pharmacokinetics of aflatoxin B1: In vitro determination of Michaelis–Menten constants, intrinsic clearance and the metabolic contribution of CYP1A2 and CYP3A4 in pooled human liver microsomes” (Frontiers in Microbiology, 2022).
Where “and” joins values, the source holds several entries; their conditions need not be identical. Equal entries are not always repeated. Where two headings read alike, the source gives them in different places. Marks after values point to notes of the source that are not given here.

Columns and labels:
[1] = tested on: CYP3A4 (MDZ), CYP1A2 (PH); experiment: in vitro; details: human, pH 7.4; for microsomal CLint: microsomes
Protocol: (§1) A 1.15% KCl solution was made in HPLC grade water and stored at 4°C. HLM (20 mg/ml in 250 mM sucrose) were diluted in 1.15% KCl to achieve a final protein concentration of 0.1; 0.25; 0.5; 0.75 and 1 mg/ml in the samples. The stop reagent was made with 300 μl FA, 5,500 μl ACN and Ultrapure water and contained the internal standards (IS; 0.072 μM of CHL and 0.12 μg/ml of ZAN).
(§2) Samples were prepared partially based on [Schelstraete et al. (2019a],[b)]. […] Next, 50 μl of a freshly prepared NADPH.4Na solution was added. After an incubation of 3 min, 50 μl of diluted HLM was added and they were placed back on the thermoshaker TS-100 (Biosan, Geraardsbergen, Belgium) with a rotation speed of 300 rpm and at a temperature of 37°C. After the indicated time (i.e., 5, 10, 20, 30 and 45 min), 25 μl of an ice cold stop reagent with IS, i.e., CHL for CYP probes and ZAN for AFB1, was added. For protein precipitation, 125 μl of TFA was added. Samples were centrifuged at 16,000×g for 20 min at 4°C. The centrifugal filters were discarded and the supernatant was added to 1 ml of a 0.2 M phosphate buffer. Next, 7 ml of ethyl acetate was added in order to perform a liquid–liquid extraction (LLE). Samples were extracted during 20 min on an Agitelec shaker at room temperature. For phase separation, samples were centrifuged at 2,000× g for 10 min. Subsequently, the organic phase was transferred in glass tubes and evaporated under a gentle nitrogen stream at 40°C (±5°C) using a Turbovap (Biotage, Charlotte, United States). After evaporation, samples were kept at −20°C until further analysis. Upon analysis, 250 μl of a 60/40 mobile phase A (MP A; H2O/MeOH/acetic acid (94/5/1, v/v/v) + 5 mM ammonium acetate)/mobile phase B (MP B; H2O/MeOH/acetic acid (2/97/1, v/v/v) + 5 mM ammonium acetate) mixture was added. After thorough vortexing and centrifuging for 10 min at 1,000× g, the samples were transferred to an autosampler vial. An aliquot of 5 μl was injected into the ultrahigh performance liquid chromatography (UPLC) - XEVO TQ-S (LC–MS/MS) equipment using an in-house developed and validated method.
(§3) A Waters Acquity class I UPLC system coupled to a XEVO TQ-S tandem quadrupole mass spectrometer (MS) from Waters (Milford, MA, United States) was used for the detection and quantification. A Charged Surface Hybrid (CSH) C18 column (1.7 μm 2.1 × 100 mm) with Guard column was used for chromatographic separation. The column temperature was set at 30°C; the sample temperature at 10°C. The MP was used at a flow rate of 0.250 ml/min following a gradient program (Table 1). The total duration for a single run was 12 min. The MS was operated in the electrospray positive mode (ESI+) with multiple reaction monitoring (MRM). Source temperature and desolvation temperature were set at 130°C and 200°C. The cone gas flow was set at 150 L/h, the desolvation gas flow at 550 L/h. Data was processed using Masslynx® and Targetlynx® software from Micromass (Manchester, United Kingdom). Data analysis was performed by transferring Targetlynx® data to Microsoft Excel and Sigmaplot version 14.5. For AFB1, substrate depletion was measured. Nonlinear regression on sigmoidal plots where the initial depletion rate (kdep) was plotted against AFB1 concentrations on a linear-log plot, was performed using Excel Solver ([Youdim and Dodia, 2010]).
(§4) Substrate work solutions of AFB1 were made to achieve sample concentrations from 0.5 μM to 50 μM, for the HLM experiments. For rhCYP an extra AFB1 sample concentration of 100 μM was implemented. HLM (20 mg/ml in 250 mM sucrose) were diluted in 1.15% KCl to achieve a final protein concentration of 0.25 and 0.5 mg/ml in the samples, as based on previous linearity experiments. The stop reagents were those described in 2.1.2.
(§5) For CYP3A4 rhCYP experiments, 50 μl of diluted supersomes at 150 pmol/ml were used instead of HLM, achieving a final concentration of 30 pmol/ml.

[2] = tested on: pooled human liver microsomes; experiment: in vitro
Protocol: as §1, §2, §3, §4, §5

CYP3A4 [3] = target: CYP3A4 (Homo sapiens, UniProt P08684); experiment: in vitro
Protocol: as §4
(§6) For CYP3A4 rhCYP experiments, 50 μl of diluted supersomes at 150 pmol/ml were used instead of HLM, achieving a final concentration of 30 pmol/ml. For CYP1A2 rhCYP experiments, 50 μl of diluted EasyCYP LR bactosomes at 50 pmol/ml were used, achieving a final concentration of 10 pmol/ml.
(§7) The same equipment, settings and procedures were used as explained in Section “LC–MS/MS (linearity experiments).” Data analysis was performed by transferring Targetlynx® data to Microsoft® Excel. Metabolite formation velocity versus substrate concentration figures were plotted with error bars, Sigmaplot version 14.5 was used for determining the Michaelis–Menten constant (Km) and maximum velocity (Vmax) by performing nonlinear regression on the figures. For AFB1 substrate depletion was measured. Nonlinear regression on sigmoidal plots, where the initial depletion rate (kdep) was plotted against AFB1 concentrations on a linear-log plot, was performed using Excel Solver ([Youdim and Dodia, 2010]).
(§8) The CLH,u,int is multiplied by the AAF, leading to an AAF corrected CLH,u,int (CLH,u,int,AAF). The obtained Km and Vmax values of the CYP probes from rhCYPs were used to calculate intersystem extrapolation factors (ISEFs) for both Vmax and CLint (Equations 7 and 8).
(§9) (7) VmaxISEF=Vmax,HLM/Vmax,rhCYP∗CYPabundancepmolP450/mg
(§10) (8) CLintISEF=Vmax,HLM/Km,HLM∗10^−6/Vmax,rhCYP/Km,rhCYP∗10^−6∗CYPabundancepmolP450/mg
(§11) CLH,u,int,AAF values of AFB1 from rhCYP experiments were multiplied with the CLint ISEF, resulting in an ISEF corrected CLH,u,int,AAF (CLH,u,int,AAF,ISEF). […] Equation 10 presents the extrapolation to the whole liver hepatic blood clearance from rhCYP experiments. The hepatic blood clearance (CLH,B) was multiplied by the blood/plasma ratio (B:P) to obtain the whole liver hepatic plasma clearance, CLH,P.
(§12) (10) CLH,BL/h=QH∗fu,b∗CLH,u,int,AAF,ISEF/QH+fu,b∗CLH,u,int,AAF,ISEF
(§13) Next, Km and Vmax experiments were performed in recombinant enzyme systems. […] For AFB1, where substrate depletion was analyzed, kdep was determined for different substrate concentrations in supersomes and bactosomes which was plotted against AFB1 substrate concentrations on a log-scale (Figures 3E,F). By dividing the theoretical maximal kdep by the protein concentration, the CLint was achieved from which the Vmax could be determined ([Youdim and Dodia, 2010]).

[4] = human, microsomes
[5] = cited from earlier work
human liver microsomes [6] = details: cited from earlier work
CYP1A2 [7] = target: T1, CYP1A2 (Homo sapiens, UniProt P05177)
Protocol: as §4, §6, §7, §8, §9, §10, §11, §12, §13

CYP3A4/3A5 = assay type: in vitro ADME, human
human liver microsomes [8] = experiment: AFB1 inhibition assays in HLM, both contributions combined; assay type: in vitro ADME
CYP3A4 [9] = details: cited from earlier work
CYP3A5 = details: cited from earlier work
CYP3A7 = details: cited from earlier work
[10] = cited from earlier work; remark: listed apart in the source
CYP1A2 [11] = target: T1, CYP1A2; experiment: AFB1 inhibition assay in HLM with α-naphthoflavone; assay type: in vitro ADME; design: tissue Corning; host or cells: human liver microsomes, UltraPool HLM 150, mixed gender
CYP1A2 [12] = target: T1, CYP1A2; design: tissue Corning; host or cells: human liver microsomes, UltraPool HLM 150, mixed gender; details: cited from earlier work
[13] = HLM pool of 16.0 donors, ref Kazmi, 2015

T1 sequence (P05177 whole entry): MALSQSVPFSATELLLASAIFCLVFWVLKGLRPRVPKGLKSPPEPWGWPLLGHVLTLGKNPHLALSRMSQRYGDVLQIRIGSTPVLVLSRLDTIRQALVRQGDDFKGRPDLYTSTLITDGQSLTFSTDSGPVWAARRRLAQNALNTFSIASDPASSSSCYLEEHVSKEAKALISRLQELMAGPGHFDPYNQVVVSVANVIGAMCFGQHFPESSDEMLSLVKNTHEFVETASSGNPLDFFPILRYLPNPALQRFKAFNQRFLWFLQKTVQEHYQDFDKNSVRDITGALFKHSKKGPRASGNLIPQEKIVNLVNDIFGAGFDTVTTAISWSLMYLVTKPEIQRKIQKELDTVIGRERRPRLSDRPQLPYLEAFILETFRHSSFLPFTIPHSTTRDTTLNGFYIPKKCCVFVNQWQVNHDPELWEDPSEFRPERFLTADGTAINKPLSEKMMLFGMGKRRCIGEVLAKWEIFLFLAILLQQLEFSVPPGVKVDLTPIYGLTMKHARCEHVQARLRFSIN
Chain of CYP3A4 (Homo sapiens, UniProt P08684) (P08684 2-503): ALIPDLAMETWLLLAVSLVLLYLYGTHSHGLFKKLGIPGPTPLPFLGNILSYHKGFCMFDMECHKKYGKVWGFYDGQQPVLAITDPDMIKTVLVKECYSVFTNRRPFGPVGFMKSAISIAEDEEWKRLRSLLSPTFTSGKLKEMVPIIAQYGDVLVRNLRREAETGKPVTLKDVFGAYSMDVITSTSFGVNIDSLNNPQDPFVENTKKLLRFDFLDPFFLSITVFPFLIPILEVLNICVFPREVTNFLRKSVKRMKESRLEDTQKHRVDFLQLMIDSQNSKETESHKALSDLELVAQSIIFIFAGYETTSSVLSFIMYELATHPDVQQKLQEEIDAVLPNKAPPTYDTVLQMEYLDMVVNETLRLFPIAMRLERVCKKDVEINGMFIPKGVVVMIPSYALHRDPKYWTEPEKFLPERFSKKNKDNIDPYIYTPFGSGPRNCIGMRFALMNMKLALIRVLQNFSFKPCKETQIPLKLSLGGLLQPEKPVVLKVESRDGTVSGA

Cc1ncc2n1-c1ccc(Cl)cc1C(c1ccccc1F)=NC2 [MDZ, midazolam, reference compound]
microsomal CLint [1]: 445 µL/min/mg
Km [1]: 2.15 µM
CLH,B calculated (hepatic blood clearance, AAF corrected) ([2]; human, pH 7.4): 44.1 L/h
CLH,p calculated (hepatic plasma clearance) ([2]; human, pH 7.4): 26.6 L/h
CLH,u,int (whole liver) ([2]; human, pH 7.4): 1,941 L/h
calculated CLH,B compared to literature ([2]; human, pH 7.4): ≤ 1.00 fold
Km (CYP3A4 [3]; human): 3.2 µM
Vmax (CYP3A4 [3]; human, pH 7.4): 14.1 pmol/min/pmol P450
fraction unbound [4]: 0.907
CLH,p literature ([5]; ref Persson et al. (1987)): 29.0 L/h^d
CLH,u,int (whole liver) (human liver microsomes [6]): 2,700 L/h

CCOc1ccc(NC(C)=O)cc1 [PH, phenacetin, reference compound]
microsomal CLint [1]: 21.4 µL/min/mg
Km [1]: 40 µM
CLH,p calculated (hepatic plasma clearance) ([2]; HLM, probe substrates, CLH,B x B:P): 21.9 L/h
CLH,B calculated (hepatic blood clearance, AAF corrected) ([2]; HLM, probe substrates, QH 90 L/h, Equation 9): 21.7 L/h
calculated CLH,B compared to literature ([2]; HLM, MDZ vs Kazmi, 2015, PH vs Shibata et al., 2002): ≤ 1.04 fold
CLH,u,int (whole liver) ([2]; HLM, MPPGL 40 mg/g, LW 1,650 g, Equation 4): 84.74 L/h
Vmax (CYP1A2 [7]; CYP1A2 bactosomes): 11.6 pmol/min/pmol P450
CLH,B literature (in vivo human hepatic blood clearance) ([5]; ref Shibata et al. (2002)): 20.8 L/h
CLH,u,int (whole liver) (human liver microsomes [6]; [13]): 92.00 L/h
CLint,in vitro (human liver microsomes [6]; [13]): 23.3 µL/min/mg
CLint,in vitro (human liver microsomes [6]; HLM pool of 105 donors, ref Gao et al., 2017): 14.5 µL/min/mg
Km (human liver microsomes [6]): 10 to 62 µM

aflatoxin B1 [AFB1]
CLH,B calculated (hepatic blood clearance, AAF corrected), CYP3A4 [2]: 40.0 L/h and 40.0^CYP3A4 L/h
CLH,p calculated, CYP1A2 [2]: 39.6 L/h
CLH,p calculated, CYP3A4 [2]: 41.2 L/h
CLH,u,int (whole liver) [2]: 1,190 L/h
CLH,u,int (whole liver), CYP1A2 [2]: 583^CYP1A2 L/h
CLH,u,int (whole liver), CYP3A4 [2]: 535^CYP3A4 L/h
CLH,u,int,AAF [2]: 450^CYP3A4 L/h and 420^CYP1A2 L/h
Km [2]: 40.9 µM
CLint,in vitro ([2]; human): 282 µL/min/mg
CLH,B calculated (hepatic blood clearance, ISEF and AAF corrected) (CYP3A4 [3]): 47.7 L/h
CLH,B from supersomes relative to CLH,B from HLM (CYP3A4) (CYP3A4 [3]): 1.19 fold
CLH,p calculated (CYP3A4 [3]): 49.1 L/h
CLH,u,int (CYP3A4 [3]): 755 L/h
CLH,u,int,AAF (CYP3A4 [3]): 634 L/h
Km (CYP3A4 [3]): 49.6 µM
Vmax,ISEF (CYP3A4 [3]): 5.97 nmol/mg/min
Vmax,ISEF (ISEF corrected Vmax) (CYP3A4 [3]): 43.6 pmol/min/pmol P450
CLH,B calculated (hepatic blood clearance, ISEF and AAF corrected) (CYP1A2 [7]): 56.1 L/h
CLH,B from EasyCYP bactosomes relative to CLH,B from HLM (CYP1A2) (CYP1A2 [7]): 1.46 fold
CLH,p calculated (CYP1A2 [7]): 57.8 L/h
CLH,u,int (CYP1A2 [7]): 1,295 L/h
CLH,u,int,AAF (CYP1A2 [7]): 932 L/h
Km (CYP1A2 [7]): 58.2 µM
Vmax,ISEF (CYP1A2 [7]): 14.7 nmol/mg/min
CYP3A4/5 contribution to AFB1 metabolism (CYP3A4/3A5): 45%
contribution ascribed to other enzymes, expectedly CYP2A13 (human liver microsomes [8]): 6.0%
sum of CYP3A4/5 and CYP1A2 contributions (human liver microsomes [8]): 94%
CYP3A4 contribution (CYP3A4 [9]): 79–95%
Km (CYP3A4 [9]; read-out: Km for the AFBO formation via CYP3A4): 133 µM
Km (CYP3A4 [9]; read-out: Km for the AFM1 formation via CYP3A4): 139 µM
CYP3A5 contribution (CYP3A5): 4–15%
CYP3A7 contribution (CYP3A7): 5–7%
fu,B (free fraction in blood) [10]: 0.160^b
Vmax (AFBO or AFQ1 formation), range (human liver microsomes [6]): 236–11,281 pmol/(mg.min)
Km (human liver microsomes [6]; read-out: Km (AFBO or AFQ1 formation), range): 90 to 1720 µM
CYP1A2 contribution to AFB1 metabolism (CYP1A2 [11]): 49%
CYP1A2 contribution (CYP1A2 [12]): 1–5%
contribution of CYP1A2 (CYP1A2 [12]): 95%
Km (CYP1A2 [12]; read-out: Km for the AFBO formation via CYP1A2): 41 µM
Km (CYP1A2 [12]; read-out: Km for the AFM1 formation via CYP1A2): 29 µM
